Data taken from patent publication US11427553B2, “Dihydrooxadiazinones” (Bayer Aktiengesellschaft, priority 2017, dated 2022).

Columns and labels:
IGR37 cells = assay: Assay 1 cell proliferation measurement (CTG, 72 h), IGR37; assay type: cell-based; settings: Homo sapiens, IGR-37, Cell Titer Glo, read-out: IGR37 IC50 [nM] (melanoma)
HS578T cells = assay: Assay 2 cell proliferation measurement, HS578T; assay type: cell-based; settings: Homo sapiens, Hs-578T, Breast, ductal carcinoma, read-out: Anti-proliferation IC50 [nM] HS578T
Description: (§1) Cell Proliferation Measurement
(§2) The antiproliferative activity of the compounds of the general formula (I) was examined in vitro in human cancer cells. For this purpose, 500 cells, including HeLa cells, A2058 cells, DU145 cells, HMCB cells, IGR37 cells, NCIH1734 cells, OSRC2 cells, or 750 cells, including CAL51 cells, COL0741 cells, DBTRG05MG cells, DKMG cells, G292CLONEA141B1 cells, GB1 cells, HEL cells, HEL9217 cells, JHUEM1 cells, L3.3 cells, LI7 cells, TE4 cells, or 1000 cells, including 8505C cells, HUT78 cells, NCIH1563 cells, NCIH2122 cells, NCIH2172 cells, RVH421 cells, SKMEL3 cells, or 1500 cells, including C32 cells, HS578T cells, JHOM1 cells, NCIH196 cells, OVKATE cells, were plated in 384-well plates with appropriate growth medium and incubated at 37° C. overnight. After 24 h, the cells on the test plate were treated with the compounds of the general formula (I) as and incubated at 37° C. for 72 h. The compounds were added to the cells by means of an HP D300 digital dispenser in a 10 (or more)-step dilution series. As control, the cells were treated with vehicle (DMSO at 0.3% final concentration). After 72 h, the cells were treated with 20 μl/well of 50% CTG solution in PBS (Promega Cell Titer Glo (catalogue #G755B and G756B)) and incubated at room temperature for 10 min, and luminescence was measured by means of a VICTOR V (Perkin Elmer), in order to determine cell viability at the end of treatment. The percentage effect on cell growth and the IC50 derived therefrom were determined for each test substance using the values from untreated wells (=percent viability). The IC50 values were calculated using a 4-parameter fit.

C32 cells = assay: Assay 2 cell proliferation measurement, C32; assay type: cell-based; settings: Homo sapiens, Melanoma, read-out: Anti-proliferation IC50 [nM] C32
Description: as §1, §2

RVH421 cells = assay: Assay 2 cell proliferation measurement, RVH421; assay type: cell-based; settings: Homo sapiens, RVH-421, Melanoma, read-out: Anti-proliferation IC50 [nM] RVH421
Description: as §1, §2

human full length PDE3A = human full length PDE3A (Homo sapiens (Human), UniProt Q14432); assay: Assay 4 PDE3A enzyme inhibition (3H-cAMP SPA); assay type: biochemical; settings: Sf9 cell extract
Sequence of human full length PDE3A (Q14432 whole entry): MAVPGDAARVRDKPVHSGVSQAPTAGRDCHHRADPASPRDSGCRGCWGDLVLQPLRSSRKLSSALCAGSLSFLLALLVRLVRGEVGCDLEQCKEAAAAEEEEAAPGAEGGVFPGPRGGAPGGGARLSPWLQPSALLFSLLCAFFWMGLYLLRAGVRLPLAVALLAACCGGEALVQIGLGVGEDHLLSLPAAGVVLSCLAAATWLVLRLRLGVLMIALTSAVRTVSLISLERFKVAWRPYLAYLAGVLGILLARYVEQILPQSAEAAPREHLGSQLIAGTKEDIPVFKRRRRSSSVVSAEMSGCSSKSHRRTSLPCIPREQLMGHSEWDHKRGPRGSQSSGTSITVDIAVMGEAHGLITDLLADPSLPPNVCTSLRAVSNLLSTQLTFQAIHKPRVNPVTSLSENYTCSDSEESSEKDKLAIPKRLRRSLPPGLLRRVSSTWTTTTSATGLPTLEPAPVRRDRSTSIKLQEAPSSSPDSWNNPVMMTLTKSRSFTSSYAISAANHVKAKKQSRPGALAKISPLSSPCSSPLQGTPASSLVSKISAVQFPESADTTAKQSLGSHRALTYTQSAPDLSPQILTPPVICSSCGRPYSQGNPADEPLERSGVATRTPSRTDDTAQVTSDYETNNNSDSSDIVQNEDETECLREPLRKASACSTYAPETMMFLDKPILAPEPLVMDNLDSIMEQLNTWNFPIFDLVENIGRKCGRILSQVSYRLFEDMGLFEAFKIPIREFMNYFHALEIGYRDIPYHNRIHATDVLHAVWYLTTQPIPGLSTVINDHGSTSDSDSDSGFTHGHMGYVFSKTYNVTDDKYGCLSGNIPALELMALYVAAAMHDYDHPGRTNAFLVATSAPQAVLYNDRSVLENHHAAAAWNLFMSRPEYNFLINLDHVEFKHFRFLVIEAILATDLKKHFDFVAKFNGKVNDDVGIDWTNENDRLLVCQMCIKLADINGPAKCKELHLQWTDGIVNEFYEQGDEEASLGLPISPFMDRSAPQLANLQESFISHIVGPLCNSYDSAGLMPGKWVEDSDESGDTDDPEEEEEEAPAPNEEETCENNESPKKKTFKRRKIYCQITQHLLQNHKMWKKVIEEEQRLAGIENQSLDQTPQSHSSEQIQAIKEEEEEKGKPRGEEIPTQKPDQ
Outline: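 In this SPA format, the 60-min room-temperature reaction used 0.025 μCi [8-3H]cAMP and diluted full-length PDE3A from Sf9 cells. Percentage activity was plotted against log compound concentration to derive IC50.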

HMCB cells = assay: Assay 1 cell proliferation measurement, HMCB; assay type: cell-based; settings: Homo sapiens, Melanoma, read-out: Anti-proliferation IC50 [nM] HMCB
[1] = test system: PA-1 xenograft (Ovarian teratocarcinoma); assay: Assay 3 in vivo xenotransplantation model, PA-1; settings: PA-1 ovarian teratocarcinoma xenograft, mice
Text: In Vivo Xenotransplantation Models
The anti-tumor activities of Compounds of examples 135 and 146 were examined in murine xenotransplantation models of human cancer. For this purpose, mice were implanted subcutaneously with tumor cells. At a mean tumor size of 20-40 mm^2 animals were randomized into treatment and control groups (at least n=10 animals/group) and treatment started with vehicle only or respective Compound (formulation: 90% PEG400/10% Ethanol; application route: per os (“p.o.”), orally). The oral application volume was 10 ml/kg. In the case of twice daily treatments, the time interval between two applications per day was 6-7 h. The tumor size and the body weight were determined at least weekly. The tumor area was detected by means of an electronic caliper [length (mm)×width (mm)]. The experiment was ended when the study reached the pre-determined ethical endpoint based on German and European animal welfare regulations. In vivo anti-tumor efficacy is presented as T/C ratio at study end (Treatment/Control; mean tumor weight of treatment group/mean tumor weight of control group) in Table 8. A compound having a T/C below 0.5 is defined as active (i.e., effective). Statistical analysis was assessed using SigmaStat software. A one-way analysis of variance was performed and differences to the control were compared by a pair-wise comparison procedure (Dunn's method).

NCIH196 cells = assay: Assay 2 cell proliferation measurement, H196; assay type: cell-based; settings: Homo sapiens, NCI-H196, Lung small cell carcinoma, read-out: Anti-proliferation IC50 [nM] H196
Description: as §1, §2

HeLa cells = assay: Assay 2 cell proliferation measurement, HeLa; assay type: cell-based; settings: Homo sapiens, Cervical, read-out: Anti-proliferation IC50 [nM] HeLa
Description: as §1, §2

HEL 92.1.7 cells = assay: Assay 1 cell proliferation measurement, HEL 92.1.7; assay type: cell-based; settings: Homo sapiens, Erythroleukemia, read-out: Anti-proliferation IC50 [nM] HEL 92.1.7
CHL-1 cells = assay: Assay 1 cell proliferation measurement, CHL-1; assay type: cell-based; settings: Homo sapiens, Melanoma, read-out: Anti-proliferation IC50 [nM] CHL-1
DK-MG cells = assay: Assay 1 cell proliferation measurement, DK-MG; assay type: cell-based; settings: Homo sapiens; Glioblastoma; read-out: Anti-proliferation IC50 [nM] DK-MG
PA-1 cells = assay: Assay 1 cell proliferation measurement, PA-1; assay type: cell-based; settings: Homo sapiens, Ovarian teratocarcinoma, read-out: Anti-proliferation IC50 [nM] PA-1

Row | IC50 (human full length PDE3A) [nM] | IC50 (NCIH196 cells) [nM] | IC50 (HeLa cells) [nM] | SMILES | IC50 (IGR37 cells) [nM] | IC50 (HS578T cells) [nM] | IC50 (C32 cells) [nM] | IC50 (RVH421 cells) [nM] | IC50 (HMCB cells) [nM] | T/C (mean final tumor weight treatment / control) ([1]; 5 mg/kg 2QD p.o.) | IC50 (HEL 92.1.7 cells) [nM] | IC50 (CHL-1 cells) [nM] | IC50 (DK-MG cells) [nM] | IC50 (PA-1 cells) [nM] | T/C (mean final tumor weight treatment / control) ([1]; 20 mg/kg 2QD p.o., * P < 0.05 vs control)
1 | 87 | 150 | 2 | C[C@@H]1OC(=O)NN=C1c1ccc(-c2ccc(F)cc2)c(C(F)(F)F)c1 [Example 135, (6S)-5-[4′-Fluoro-2-(trifluoromethyl)biphenyl-4-yl]-6-methyl-3,6-dihydro-2H-1,3,4-oxadiazin-2-one] | 3 | 33 | 58 | 140 | 13 | 0.63 | – | – | – | – | –
2 | 310 | – | – | O=C1NN=C(c2ccc(-c3ccc(Cl)cc3)c(C(F)(F)F)c2)CO1 [Example 31, 5-[4′-Chloro-2-(trifluoromethyl)biphenyl-4-yl]-3,6-dihydro-2H-1,3,4-oxadiazin-2-one] | 14 | – | – | – | – | – | 47 | 28 | 39 | 39 | –
3 | – | 355 | 5 | C[C@@H]1OC(=O)NN=C1c1ccc(-n2ccc(C(F)(F)F)n2)c(C(F)(F)F)c1 [Example 265, (6S)-6-Methyl-5-{3-(trifluoromethyl)-4-[3-(trifluoromethyl)-1H-pyrazol-1-yl]phenyl}-3,6-dihydro-2H-1,3,4-oxadiazin-2-one] | 7 | 116 | 132 | 262 | – | – | – | – | – | – | –
4 | 40 | 32 | 2 | O=C1NN=C(c2ccc(-c3cnn(C(F)F)c3)c(C(F)(F)F)c2)CO1 [Example 146, 5-{4-[1-(Difluoromethyl)-1H-pyrazol-4-yl]-3-(trifluoromethyl)phenyl}-3,6-dihydro-2H-1,3,4-oxadiazin-2-one] | 2 | 20 | 52 | 47 | – | – | 13 | 8 | 12 | 12 | 0.49*
5 | 285 | – | – | O=C1NN=C(c2ccc(-c3ccc(F)cc3)c(C(F)(F)F)c2)CO1 [Example 3, 5-[4′-Fluoro-2-(trifluoromethyl)biphenyl-4-yl]-3,6-dihydro-2H-1,3,4-oxadiazin-2-one] | – | – | – | – | 26 | – | 25 | 9 | 21 | 22 | –
